Source: a melting point compilation (Tetko et al.; mined from patent text by program, amines drawn as free bases though some values may be those of a salt)

Structure (SMILES)	melting point [°C]
NC(=O)c1cn(C(CO)CCc2cccc(C(F)(F)F)c2)cn1 (stereo not given)	103 to 106
C#CCn1cc(Cl)cnc1=O	130
COC(=O)CCCCCCc1ncsc1C=O	60 to 62
O=P1(O)Oc2ccccc2-c2cc(C(F)(F)F)ccc21	240
O=C1NCC(C(=O)NCCO[N+](=O)[O-])S1 (stereo not given)	114 to 115
CCCCc1ncc(CC(=O)NC(CCc2ccccc2)C(=O)O)n1Cc1ccccc1Cl (racemic)	119 to 120
CCN1C(=O)CN=C(c2ccccc2F)c2cc(C(C)O)ccc21 (stereo not given)	48 to 50
OCc1cn(-c2ccc(Cl)c(Cl)c2)cn1	146 to 147
O=C(O)C(=O)CC(=O)c1cn(Cc2ccccc2)c2ccccc2c1=O	141 to 142
CCCCCCCCCCCCCCOc1ccccc1O	53 to 54
CCOC(=O)c1ncn2c1CN=C(c1ccccc1)c1cc(Br)ccc1-2	210 to 212
CCC(CC)NC(=O)C[C@@H](C(=O)NC[C@@H](O)[C@@H](N)Cc1ccccc1)C(C)(C)C	155 to 158
CON(C)C(=O)c1cc(Cl)nc(Cl)c1	69 to 70
CCCCCCCCCCCCCCOc1ccc(NC(=O)Nc2cccc(CBr)c2)cc1	164 to 169
CC(C)Oc1cc(CCCOc2cc(CCC(=O)O)n(C)n2)cc(COc2ccc(Cl)cc2Cl)c1	116 to 120
CC1(CO)Cn2cc([N+](=O)[O-])nc2O1 (stereo not given)	162 to 163
Cc1cc(O)c(C)c2c1NCC2	155 to 158
ON1Cc2ccccc2C1=S	110 to 111
CCCN(Cc1ccc(-c2ccccc2-c2nnnn2C(c2ccccc2)(c2ccccc2)c2ccccc2)cc1)c1ncncc1C(=O)OCC	100 to 103
O=CNCC1CCCc2cc(NS(=O)(=O)c3cccc(F)c3)ccc21 (stereo not given)	143 to 144
O=[N+]([O-])c1ccc(OCC(F)(F)F)c([N+](=O)[O-])c1	76 to 77
CCN(CC)CCN1C(=O)c2cc(Cl)c(S(N)(=O)=O)cc2C1=O	152 to 154
CC(Oc1ccc(S(C)=O)cc1)c1ccnc2ncnn12 (stereo not given)	89 to 102
O=c1cc(-c2ccc(CO)cc2)oc2ncccc12	218 to 219

Structure (SMILES)	melting point [°C]
COc1cc2cc(C(=O)NO)sc2cc1OC	179 to 180
O=C1CC(/C=C/c2ccncc2)=Nc2ccccc2N1Cc1ccccc1	208 to 210
CS(=O)(=O)CCCn1c(=N)sc2cc(OC(F)(F)F)ccc21	180
Cc1ccc(-c2nc(-c3ccc(C)cc3C)nc(-c3ccc(OCCCCCCO)cc3O)n2)c(C)c1	117 to 118
CSCCC(C)NC(=O)c1c(I)cccc1C(=O)O (stereo not given)	148 to 150
Cc1cccc(S(=O)(=O)NC(=O)NCCCCCCNC(=O)NS(=O)(=O)c2cccc(Cl)c2)c1	187 to 189
C=CCOc1ccc2c(C)cc(=O)oc2c1	110
C=CCC(CO)C(O)c1cccnc1 (stereo not given)	112 to 113
CCC1(C2OC(C3OC(O)(CO)C(C)CC3C)CC2C)CCC(C2(C)CCC3(CC(O)C(C)C(C(C)C(OC)C(C)C(=O)O)O3)O2)O1 (stereo not given)	78 to 80
Cc1ccc(-c2ccc3c(c2)C(=O)CCC3)cc1	86 to 87
C=CCOC(=O)CCC(C)(c1ccc(O)cc1)c1ccc(O)cc1	83 to 85
COc1ccc(CN2C(=O)C(C)(c3cc(COCCO)ccc3Cl)c3cc(Cl)ccc32)c(OC)c1 (stereo not given)	53
FC(F)(F)c1ccc(CCl)cc1	224 to 228
COc1ccc(CC(=O)N[C@@H](C)CO)cc1OC	122 to 125
CC1CC(=O)c2c(ccc(Cl)c2Cl)O1 (stereo not given)	135 to 140
CSc1nc(Cl)c2sccc2n1	115 to 118
Cc1cccc2c1NC(=O)C2	206 to 207
O=C(O)C(=O)c1ccc(OCCOc2ccc(Cl)cc2)cc1	121 to 122
c1ccc(-c2ncc(-c3ncco3)cn2)cc1	175 to 177
CC(C)(C)OC(=O)NC12CCC1CNC2 (stereo not given)	113 to 116
O=C(NO)c1ccc(CNC(=O)c2[nH]c(-c3ccc(O)cc3)cc2-c2ccsc2)cc1	121 to 122
CCOC(=O)C(c1c(Cl)ccc(Cl)c1Cl)N(C(=O)CCl)c1ccc(Br)cc1 (stereo not given)	141
COC(=O)C1CCC2C3CCC4CC(OC(C)=O)C(OC)CC4(C)C3C(NC3CCCCC3)CC12C (stereo not given)	87 to 89

The next lines start with the values.

melting point [°C]	Structure (SMILES)
40 to 42	CCCCCCCC(CCCCCC)CCOC(=O)c1ccccc1N=NN1CCOCC1 (stereo not given)
125	COc1cc(CC(=O)NCCCc2ccc(C)c(C)c2)ccc1OCCN
108 to 110	COc1ccccc1CP(C)(=O)C1CCCCC1 (stereo not given)
170	CN1CCN(C(=O)c2cc(N)cc3c2OCCO3)CC1
73 to 84	CCC(Nc1ncnc2c1ncn2C1OC(CO)C(O)C1O)c1ccccc1 (stereo not given)
198 to 202	Cc1cc(N)cc(C)c1Oc1ccc(O)c(C(=O)c2ccc(F)cc2)c1
187 to 189	C#CC(C)(C)OC(=O)Nc1ccc(-c2ncn(-c3ccc(C(F)(F)F)cc3)n2)cc1
151 to 153	COc1cc2c(cc1C)C1(CO2)C(=O)N(CC2CCCO2)c2ccccc21 (stereo not given)
157 to 158	COc1ccc(N2CCCN(/C(C)=C(/C#N)C(N)=S)CC2)cc1
141 to 142	COC(=O)c1ccc2oc(-c3cccs3)nc2c1
110 to 112	COC(=O)c1ccc(CN2C(=O)C(CCOc3ccc(CCNC(=O)OC(C)(C)C)cc3)Oc3ccccc32)cc1 (stereo not given)
168 to 170	CC(=O)Nc1ccc(OCc2nc3ccccc3s2)cc1
92 to 93	CN(CCO)Cc1cc(C(=O)c2ccccc2)cc(C2CCCCC2)c1O
200	O=C(OCc1ccccc1)c1ccc2cc(-c3ccc(CC(O)CO)c(C45CC6CC(CC(C6)C4)C5)c3)ccc2c1 (stereo not given)
208	CC(C)OC(=N)c1sc2ccccc2c1O
230 to 240	CNC[C@@H]1CN(c2nc3c(cc2F)c(=O)c(C(=O)O)cn3C2CC2)C[C@@H]1F (relative stereo)
100 to 101	COC(=O)C(C)Oc1ccc(Sc2cc(-n3nc(C)n(C(F)F)c3=O)c(Cl)cc2Cl)cc1 (stereo not given)
111 to 116	COc1cc(C2CCN(C(=O)C3CCN3)CC2)ccc1Nc1ncc2ccc(-c3ccccc3N(C)S(C)(=O)=O)n2n1 (stereo not given)
143 to 144	CC(C)Oc1cccc(N(C)C(=O)N(C)Cc2c(-c3ccccc3)c3cc(Cl)ccc3c(=O)n2C)c1
146 to 148	COC(=O)c1ccc(-c2nc(-c3ccc(OC(F)F)cc3)cs2)cc1
189 to 192	CC12CCC3c4ccc(C(=O)O)cc4CCC3C1CCC2C(=O)c1cccnc1 (stereo not given)
162 to 163	CC(C)C1(C)NC(c2ccccc2C(=O)O)=NC1=O (stereo not given)
148 to 149	COC(=O)C(N)(CO)Cc1c[nH]c2ccccc12 (racemic)
211	CC(C)(C)OC(=O)N1CCC(OCc2ccccc2)C1CC(=O)Cn1cnc2ccc(F)c(F)c2c1=O (stereo not given)
> 300	CCOC(=O)c1cnc2c3cc(NC(=O)Nc4ccccc4)ccc3c(C)cn2c1=O
242 to 243	O=C(Nc1ccc(C(F)(F)F)cc1)C1=NN(c2ccc(Cl)c(Cl)c2)C(c2ccc(F)cc2)C1 (stereo not given)
143	COc1c(Cl)ccc(-c2nc(C(=O)OCc3ccc(Cl)cc3)c(Cl)c(N)c2F)c1F

melting point [°C]	Structure (SMILES)
133 to 134	CC(=C1SCCCS1)c1cccc(OCC(=O)O)c1
198 to 200	CCCCc1ncc(/C=C(\Cc2cccs2)C(=O)O)n1Cc1ccc([N+](=O)[O-])cc1
268 to 272	CN1CCN(c2ccnc3c(NC(=O)c4c(Cl)cccc4Cl)cc(F)cc23)C1=O
242 to 243	COc1cc(C(=O)O)ccc1CC(=O)Nc1cccc(/C=C/c2nc(C3CCC3)cs2)c1
221	COC(=O)C1=C(C)Nc2nc(N3CCOCC3)nc(N3CCOCC3)c2C1c1ccccc1C#N (stereo not given)
225	Cc1nn(CC(=O)c2ccc(Cl)cc2)c(=O)n1-c1ccc(N2CCN(c3ncc(O)cn3)CC2)cc1
179 to 186	CC(Cc1ccccc1)C1CC=C2C3=C(CCC21C)C1(C)CCC(O)C(C)(C)C1CC3 (stereo not given)
195 to 197	O=C(O)C1(CO)CCc2cc(C3CCCCC3)c(Cl)cc21 (stereo not given)
79	CCOC(=O)C1=C(N(C)C)N=C(C)C(C(=O)OCC)C1c1cccc(Cl)c1 (stereo not given)
213	Cc1ccn2c(-c3ccnc(-c4ccc(OCC(N)=O)cc4)c3)c(-c3cccc(C)n3)nc2c1
98 to 102	COc1nc2c(OCc3ccccc3)cccc2n1C
255 to 257	NCc1ccc(Nc2ncnc3[nH]cc(C(=O)c4ccccc4)c23)cc1
94 to 98	CCC1CCCCCc2c1oc(=O)c(C(c1ccccc1)C1CC1)c2O (stereo not given)
234 to 235	O=C(O)c1ccc(C2=NCCS2)nc1
222 to 226	Nc1nc2c(ncn2COCCOC(=O)c2ccccc2)c(=O)[nH]1
251 to 254	CCCc1nc2c(N)nc3ccc(-c4ccc(NC(C)=O)cc4)cc3c2s1
231 to 233	O=C(O)c1ccc(COCc2csc3nc(C(=O)NCc4ccc(F)c(Br)c4)[nH]c(=O)c23)cc1
184 to 186	COc1cc(N2CCN([C@H]3CC[C@@H](c4cccs4)CC3)CC2)c2ncccc2c1
180 to 181	O=C(NCC1(c2ccccc2)CCCCC1)Nc1ccc(Cl)c(Cl)c1
194 to 196	CC(C)Nc1ncc2cc(-c3c(Cl)cccc3Cl)c(=O)n(C)c2n1
230 to 233	CCOc1ncc(C(C)=O)cc1C(=O)Nc1c(C(N)=O)nn(C2CN(CC)C2)c1CC
280 to 281	Cc1cccc2ncn(-c3nnn[nH]3)c(=O)c12
174	CCCCN1CCN(NC(=O)c2cc(Cl)c(N)cc2OC)CC1
86 to 88	CCC(C(=O)N(C)C)n1cc(C)c(-c2ccccc2)n1 (stereo not given)
175 to 177	Cc1c(C(=O)c2cnn(C(C)C)c2O)ccc2sc(=O)n(C)c12
165 to 167	COC(=O)C1=C(C)NC(C)=C(C(=O)OCC2CCCO2)C1c1ccccc1Cl (stereo not given)
